Measurements from a melting point compilation (Tetko et al.; mined from patent text by program, amines drawn as free bases though some values may be those of a salt).

melting point [°C]	Structure (SMILES)
169 to 173	COC(=O)C12CCC(C(=O)O)(CC1)CC2
90 to 91	O=C(NCCCSc1ccncc1)c1cccnc1
135 to 136	O=c1[nH][nH]c(C(F)(F)F)c1Cc1ccc(Br)cc1
228	COc1ccccc1NC(=O)Nc1nc(Nc2ccccc2C(=O)O)nc(Nc2ccccc2-c2ccccc2)n1
143 to 144	CC(C)(C)OC(=O)CN1CCSC1=NC#N
96 to 97	COC(=O)c1oc(C)nc1-c1ccc2c(c1)CCCC2
171 to 173	COc1cc(-c2cc(C(F)(F)F)nn2-c2ccc(S(C)(=O)=O)cc2)ccc1-c1cocn1
288 to 290	COC(=O)c1cc(F)c2ncc(C(=O)NCc3ccc(Cl)cc3)c(O)c2c1
197 to 199	CCOc1cc(Cc2cnc(N)nc2N)cc2c1OC(C)(C)C=C2Cl
119 to 120	Fc1cc(CC2(Cc3ccnc(F)c3)c3ccccc3-c3nccnc32)ccn1
142	CCN(C(=O)C(=O)O)c1ccc2c(C)cc(=O)oc2c1
147 to 149	C[C@@H](S[C@H]1CO[C@H](/C=C/C=C/c2ccc(C#N)cc2)OC1)[C@](O)(Cn1cncn1)c1ccc(F)cc1F
193	O=C(NC(=O)c1ccccc1Br)Nc1cc(C(F)(F)F)c(Cl)cc1Br
76	CCOC(=O)N1CCN(CCS(=O)c2ccccc2)CC1 (stereo unspecified)
241 to 242	Cn1cc(S(C)(=O)=O)c(=O)c2ccc(Cl)cc21
194 to 198	O=CN1CCN(Cc2nc3ccccc3[nH]2)CC1
58 to 62	O=S(=O)(NCCCl)c1ccccc1
140 to 144	Cc1nc(C)c(=O)n(CCO)c1C
165 to 167	Oc1ccccc1-c1cc(-c2ccc(F)c(F)c2)cc(-c2ccc3ccccc3c2)n1
108 to 110	Cc1nc(C)c(-c2ccc(C#N)cc2)s1
155	COc1cc(Nc2nccc(-c3cccnc3)n2)cc(OC)c1OC
86 to 87	O=C(c1ccccc1I)N1CCOCC1
92 to 94	O=c1c(Cl)c(Cl)cnn1-c1cccc(COc2ccccc2)c1

melting point [°C]	Structure (SMILES)
145 to 146	CC(C)c1ccccc1SC1=C(O)CC(CCCCC(=O)O)(c2ccccc2)OC1=O (stereo unspecified)
86 to 88	CCCCCCC1(C)Nc2ccccc2-c2c([N+](=O)[O-])cnn21 (stereo unspecified)
230 to 232	Cc1ccc2c(c1Cl)S(=O)(=O)NCN2C1CC1
136 to 138	C=CCNC(=O)C(O)C1OC(n2cnc3c(N)ncnc32)C(O)C1O (stereo unspecified)
263 to 264	NC(CC(=O)c1ccc(N2CCN(c3ccncc3)CC2)cc1)C(=O)O (stereo unspecified)
209 to 212	CC(=O)Nc1nc2c(Oc3cc(-c4ccc(C(F)(F)F)cc4OS(=O)(=O)C(F)(F)F)ncn3)cccc2s1
138 to 139	CCN(CC)C(=O)n1cnc(Sc2c(C)cc(C)c(C)c2OC)n1
160 to 190	CC1CN(S(=O)(=O)c2cc(C#N)ccc2Sc2cc(Cl)ccc2Cl)CC(C)N1 (stereo unspecified)
122	CN(CCCCNC(=O)c1ccc2ccccc2c1)C1CCc2ncsc2C1 (stereo unspecified)
300	NC(=O)Nc1ccc2c(c1)N1CCN=C1S2
155 to 156	CC1OC(=O)Nc2ccc(-c3cccc(Cl)c3)cc21 (stereo unspecified)
226 to 230	COc1cc(OC)nc(NC(=O)NS(=O)(=O)c2cccnc2-n2cncn2)n1
162 to 164	N#CNC(=NCC(O)c1cccc(O)c1)NCCSCc1csc(NC(=N)N)n1 (stereo unspecified)
212	N#Cc1c(N2CCCCC2)cc(-c2ccc(Br)cc2)c2c1Cc1ccccc1-2
162	COc1cc(OC)c(-c2csc(N)n2)cc1Cl
105 to 106	CC1(C)OC(c2ccc(S(C)(=O)=O)c(F)c2)=C(c2cccc(Cl)c2)C1=S
155 to 157	CCCP(=O)(O)CC(=O)CNCc1ccccc1
133 to 136	CC(C)(O)C1C(=O)N2C(C(=O)OCc3ccccc3)=C(Sc3ccccc3)CC12 (stereo unspecified)
150 to 153	O=S(=O)(c1ccccc1)c1c[nH]c2ccc(CCN3CCN(Cc4ccccc4)CC3)cc12
109	CS(=O)(=O)Oc1ccc2c(c1)CN(C(=O)CCCCCN1CCN(c3cccc(C(F)(F)F)c3)CC1)C2
150 to 160	Nc1nc2c(s1)CCNCC2
141	CC1(C)Cc2cccc(OCCNCc3cncc(C4=CCCC4)c3)c2O1
179	C=CCOc1ccc(-c2nc3cnccc3[nH]2)c(OC(C)C)c1

melting point [°C]	Structure (SMILES)
133 to 135	C#CCN(Cc1ccc2nc(C)[nH]c(=O)c2c1)c1ccc(C(=O)NC(COC(C)=O)c2cccc([N+](=O)[O-])c2)cc1 (stereo unspecified)
165	O=[N+]([O-])c1ccc(SNc2nccs2)c(C(Cl)(Cl)Cl)c1
280	Nc1nc(-n2cc(C(=O)O)c(=O)c3cc(F)c(F)c(Cl)c32)c(F)cc1Cl
165 to 168	O=C(O)c1ccc(NCc2ccccc2)cc1
127 to 128	O=C(O)Cc1ccc(OCCCc2cc(-c3ccc(C(F)(F)F)cc3)no2)cc1
184 to 186	COc1cc2c(Oc3cnc4[nH]ccc4c3)ncnc2cc1OCCCN1CCCC1
194 to 198	CCc1nn(C2CCCC2)c2cc(C(=O)Nc3ccc(C(=O)NOCc4ccccc4)cc3)ccc12
103 to 105	CC(C)(C)OC(=O)NOCC(=O)NNC(=O)c1cc(S(=O)(=O)O)cc(OCc2ccccc2)c1OCc1ccccc1
150 to 152	S=C(NCCN1CCOCC1)Nc1nccs1
192 to 193	O=C1Nc2cccnc2N(C(=O)NCCN2CCC(CCCN3CCCCC3)CC2)c2ccccc21
190 to 191	O=C(Nc1cccc(-c2ccnc3c(C(=O)c4cccs4)cnn23)c1)c1ccccc1F
162 to 163	CCOc1ccc(C2=NN(C(=O)c3cccc(N)c3)CCC2)cc1OCC
80 to 82	Cc1ccc(-c2ccc3c(c2)C=C(C(=O)OC(C)(C)C)CO3)cc1
140 to 141	CCCc1ccc2c(c1)N(c1ncnc3cc(OC)c(OC)cc13)CC2
199 to 200	Nc1nc(-c2cc(Cl)ccc2Cl)nc(N(CCO)CCO)n1
238 to 242	CC(=O)N1CCc2c(c3ccc(-n4ccc(-c5ccc(C(F)(F)F)nc5)cc4=O)nc3n2C)C1
68.7 to 70.9	COCCCOc1ccc(CCCO)c(Oc2ncc(C(F)(F)F)cc2Cl)c1
220 to 221	Cn1nnnc1-c1cn(C)c2cc(C(F)(F)F)ccc2c1=O
118 to 119	O=C1OC[C@H](c2ccccc2)N1C(=O)C1C=C1
158 to 159	Oc1c(CN2CCCC2)cc(Nc2ccccn2)cc1CN1CCCC1
211 to 213	Cn1c(=N)c(C(=O)NCCN2CCOCC2)c(O)c2cc(Cl)ccc21
88.5 to 90	CCCCNC(=O)[C@@H](C[C@H](O)[C@@H](N)CC1CCCCC1)C(C)C
138 to 139	NC(=O)c1ccccc1NCc1ccc(Cl)cc1

Structure (SMILES)	melting point [°C]
COC(=O)c1c(C(=O)OC)n(Cc2cccc(C(N)=S)c2)c2ccccc12	176 to 178
NC(=O)c1cc([N+](=O)[O-])c(Cl)cc1N1CC1	155
